{"source": "patent US20050282870A1", "about": "“Peripherally-acting vasodilators” (priority 2004, published 2005)", "system": "forearm and dorsum of the foot skin", "test": "Skin vasodilatory response to topical application of 1% methyl nicotinate, Laser Doppler Perfusion Imaging", "type": "in vivo, human", "details": "for maximal vasodilatory response: compared with acetylcholine and sodium nitroprusside", "protocol": "Vasodilation induced by topical application of methyl nicotinate was evaluated and compared with the vasodilatory response to acetylcholine and sodium nitroprusside in healthy subjects and diabetic neuropathic patients. Ten diabetic patients with peripheral neuropathy and 10 age- and sex-matched healthy control subjects were enrolled. The vasodilatory response to topical application of 1% methyl nicotinate and a placebo emulsion at the forearm and dorsum of the foot skin at 4, 15, 30, 60 and 120 min was measured using Laser Doppler Perfusion Imaging. The vasodilatory response to iontophoresis of 1% acetylcholine and 1% sodium nitroprusside solutions was also evaluated.", "data": [{"smiles": "COC(=O)c1cccnc1", "note": "[methyl nicotinate]", "values": [{"measurement": "vasodilatory response", "setting": "control group (healthy subjects), foot, topical 1%, compared to acetylcholine and sodium nitroprusside responses", "value": "higher"}, {"measurement": "maximal vasodilatory response", "setting": "control group (healthy subjects), forearm, topical 1%", "value": "similar"}, {"measurement": "maximal vasodilatory response", "setting": "diabetic patients with peripheral neuropathy, forearm and foot, topical 1%", "value": "similar"}, {"measurement": "time after application at which vasodilation was present", "setting": "topical 1% methyl nicotinate", "value": 5, "unit": "min"}, {"measurement": "time of decline of vasodilation to pre-application levels", "setting": "topical 1% methyl nicotinate", "value": 120, "unit": "min"}, {"measurement": "time of peak vasodilation", "setting": "topical 1% methyl nicotinate", "value": "15 to 30", "unit": "min"}]}]}
